Measured values reported in patent US9132140B2, “Boronic acid derivatives and therapeutic uses thereof” (Rempex Pharmaceuticals, Inc., priority 2013, dated 2015).

Key:
KPC-2 [1] = biological target: T1, KPC-2 (Klebsiella pneumoniae, UniProt Q9F663); test: Inhibition of purified class A carbapenemase, biapenem cleavage; format: biochemical; conditions: substrate biapenem 100 μM
KPC-2 [2] = biological target: T1, KPC-2; test: Inhibition of purified beta-lactamase, nitrocefin cleavage; format: biochemical; conditions: read-out: Ki (KPC-2, NCF)
Description: Purified enzymes were mixed with various concentrations of inhibitors in reaction buffer and incubated for 10 min at room temperature. Nitrocefin was added and substrate cleavage profiles were recorded at 490 nm every 10 sec for 10 min.

ECM6703 (pUCP24-NDM-1) = test: microbe, parasite or virus in culture; format: cell-based, E. coli; conditions: NDM-1 producing strain; compound fixed 4 μg/ml or 8 μg/ml
ECM6711 (pUCP24-VIM-1) = test: microbe, parasite or virus in culture; format: cell-based, E. coli; conditions: VIM-1 producing strain; compound fixed 4 μg/ml or 8 μg/ml
[3] = tested on: panel of clinical isolates expressing class A, B and D carbapenemases; test: Carbapenem potentiation MIC, whole panel; format: cell-based; conditions: all strains of the panel; compound fixed 5 μg/ml
Excerpt: The results are present in Table 6.
The results are present in Table 7.

T1 sequence (Q9F663 25-293, looked up, species assumed): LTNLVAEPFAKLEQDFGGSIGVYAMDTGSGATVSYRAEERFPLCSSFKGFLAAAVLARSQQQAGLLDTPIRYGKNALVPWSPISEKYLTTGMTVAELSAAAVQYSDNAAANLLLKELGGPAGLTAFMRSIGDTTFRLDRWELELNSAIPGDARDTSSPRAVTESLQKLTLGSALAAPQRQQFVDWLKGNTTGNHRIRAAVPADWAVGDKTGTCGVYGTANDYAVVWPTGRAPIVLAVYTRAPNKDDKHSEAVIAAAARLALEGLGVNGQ

## O=C(O)c1cccc2c1OB(O)[C@@H](Sc1nncs1)C2 [Compound 1, (R)-3-(1,3,4-thiadiazol-2-ylthio)-2-hydroxy-3,4-dihydro-2H-benzo[e][1,2]oxaborinine-8-carboxylic acid]
KPC-2 [1]
  Ki: 10 to 100 nM
KPC-2 [2]
  Ki: 100 to 1000 nM
ECM6703 (pUCP24-NDM-1)
  imipenem MIC in the presence of compound: decreased to the level of the strain containing empty vector
ECM6711 (pUCP24-VIM-1)
  imipenem MIC in the presence of compound: decreased to the level of the strain containing empty vector
[3]
  carbapenem MIC in the presence of compound: significantly reduced
